IC50 data for 3 molecules are collected here from ChEMBL document CHEMBL5726789, “Substituted 6, 7-dialkoxy-3-isoquinoline derivatives as inhibitors of phosphodiesterase 10 (PDE 10A)” (2018).

The test deals with cAMP and cAMP-inhibited cGMP 3',5'-cyclic phosphodiesterase 10A (Homo sapiens, UniProt Q9Y233). In words: Homogenous Time-Resolved Fluorescence Resonance Energy Transfer (TR-FRET) Technology: The phosphodiesterase assay was developed using the LANCE® cAMP kit (PerkinElmer). The assay buffer contained HBSS with 5 mM HEPES, 0.1% BSA, and 1.5 mM MgCl2, pH 7.4. PDE10A (BPS Bioscience) was used at 200 pg/well (with a specific activity of 3200 pmole/min/μg with assay conditions: 10 mM Tris-HCl, pH 7.4, 10 mM MgCl2, 1 mM MnCl2, 200 μM cAMP, 2.5 kU 5′ nucleotidase, 37° C., 20 min) and PDE4D3 (BPS Bioscience) was used at 100 pg/well (with a specific activity of 32713 pmole/min/μg with assay conditions: 10 mM Tris-HCl, pH 7.4, 10 mM MgCl2, 1 mM MnCl2, 200 μM cAMP, 2.5 kU 5′ nucleotidase, 37° C., 20 min). The Biotin-cAMP tracer, supplied in 10 mmol/L Tris-HCl buffered (pH 8.0) salt solution with 1 mmol/L ethylenediaminetetraacetic acid (EDTA), 0.1% bovine serum albumin (BSA), and 0.05% sodium azide, is used at a dilution of 1/375. The assay detection mixture contained the LANCE Eu-W8044 labeled streptavidin 1/2250 (supplied in 50 mmol/L Tris-HCl buffered (pH 7.8) salt solution with 0.9% sodium chloride (NaCl), 0.1% BSA, and 0.05% sodium azide) and the Alexa Fluor® 647-anti cAMP antibody 1/200 (supplied in 50 mmol/L Tris-HCl buffered (pH 7.8) salt solution with 0.9% NaCl, 0.1% BSA, and 0.05% sodium azide). Chemical compounds were dissolved in DMSO (final concentration 2% (v/v)). For orientation: In TR-FRET formats the signal depends on donor and acceptor labels being close together.
Chain of cAMP and cAMP-inhibited cGMP 3',5'-cyclic phosphodiesterase 10A (Q9Y233 whole entry): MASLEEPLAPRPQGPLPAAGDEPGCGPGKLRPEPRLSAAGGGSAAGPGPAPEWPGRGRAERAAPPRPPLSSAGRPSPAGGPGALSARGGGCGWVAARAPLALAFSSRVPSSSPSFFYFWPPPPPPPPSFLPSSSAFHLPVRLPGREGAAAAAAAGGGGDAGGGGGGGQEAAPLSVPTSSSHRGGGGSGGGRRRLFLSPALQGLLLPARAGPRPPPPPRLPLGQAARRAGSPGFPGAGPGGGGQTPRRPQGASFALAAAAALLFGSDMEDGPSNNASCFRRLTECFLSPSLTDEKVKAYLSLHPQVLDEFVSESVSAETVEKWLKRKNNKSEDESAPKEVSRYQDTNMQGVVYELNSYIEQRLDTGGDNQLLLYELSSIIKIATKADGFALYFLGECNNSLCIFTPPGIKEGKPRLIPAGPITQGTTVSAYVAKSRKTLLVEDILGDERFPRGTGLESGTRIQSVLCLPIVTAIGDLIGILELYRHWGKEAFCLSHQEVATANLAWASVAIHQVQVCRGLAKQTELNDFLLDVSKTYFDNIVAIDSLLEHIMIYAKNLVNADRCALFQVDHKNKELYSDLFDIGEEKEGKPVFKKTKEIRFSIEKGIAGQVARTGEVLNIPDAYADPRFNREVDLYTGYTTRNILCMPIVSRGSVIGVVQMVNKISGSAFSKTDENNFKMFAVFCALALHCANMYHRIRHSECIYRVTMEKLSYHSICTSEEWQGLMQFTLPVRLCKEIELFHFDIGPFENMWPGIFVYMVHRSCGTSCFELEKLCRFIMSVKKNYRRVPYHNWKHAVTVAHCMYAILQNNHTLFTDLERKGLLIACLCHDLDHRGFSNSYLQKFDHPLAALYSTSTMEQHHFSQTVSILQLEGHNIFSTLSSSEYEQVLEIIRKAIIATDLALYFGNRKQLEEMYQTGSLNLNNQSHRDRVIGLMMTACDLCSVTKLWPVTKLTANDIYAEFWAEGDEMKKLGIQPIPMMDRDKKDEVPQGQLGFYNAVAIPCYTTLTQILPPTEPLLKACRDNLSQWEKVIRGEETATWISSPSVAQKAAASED

Broadly, the IC50 is the concentration that inhibits the measured activity by half. Turning to `CCn1c2ccccc2c2cc(Cc3cncc4cc(OC)c(OC)cc34)ccc21`, the 50% inhibitory concentration (IC50) worked out at 26 nM.

In the case of `CCCc1ncc(Cc2cc3cc(OC)ccc3nc2OCC#N)c2cc(OC)c(OC)cc12`, the IC50 was 158 nM. Regarding `CCCc1ncc(Cc2ccc3cccc(OC(C)(C)C(N)=O)c3n2)c2cc(OC)c(OC)cc12`, the IC50 came out at 59 nM.
